One experiment concerns the target T1, TRβ LBD (Homo sapiens, UniProt P10828).
T1 construct: (or 5 μl TRβ LBD, 4×, 2 nM)
T1 sequence (P10828 217-461 limits assumed): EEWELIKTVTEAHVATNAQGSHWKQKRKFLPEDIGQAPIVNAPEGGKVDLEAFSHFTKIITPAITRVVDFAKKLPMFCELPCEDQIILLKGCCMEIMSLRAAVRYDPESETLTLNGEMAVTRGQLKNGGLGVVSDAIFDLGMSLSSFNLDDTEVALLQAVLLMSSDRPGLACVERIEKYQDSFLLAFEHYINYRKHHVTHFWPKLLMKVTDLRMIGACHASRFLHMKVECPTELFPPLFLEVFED
Briefly: In vitro thyroid hormone receptor binding assay (TR-FRET coactivator assay), TRβ LBD. As to conditions: for EC50: TR-FRET, TRβ LBD, Biotin-SRC2-2, 1 hour at room temperature; for Relative Selectivity TR-α/TR-β: ratio of EC50 TRα/EC50 TRβ, TR-FRET assay. The method, then:
(§1) In Vitro Thyroid Hormone Receptor Binding Assay
(§2) The interaction between the compounds of present invention and Human Thyroid Receptor (TR) are evaluated by Time-Resolved Fluorescence Resonance Energy Transfer (TR-FRET) competition assay. FRET describes a radiation-free energy transfer between two chromophores: a donor fluorophore in its excited state can transfer energy to an acceptor fluorophore in close proximity (typically <10 nm). In contrast to standard FRET, TR-FRET unites time-resolved fluorescence (TRF) and the FRET principle. TRF use a long-lifetime lanthanide chelate as the donor species, while lanthanide chelates are unique in that their excited-state lifetime can be on the order of a millisecond or longer. Suitable neighbors for FRET are known in the art and can be obtained. The assay was adopted from the manual of LanthaScreen™ TR-FRET Thyroid Receptor beta Coactivator Assay kit from Invitrogen.
(§3) The assay is performed in following steps: first, prepare reaction buffer containing 50mMTris-HCl (pH7.4) with 100 mM NaCl, 1mMEDTA, 50mMKF, 1mMDTT, 1mMMgCl2, 10% glycerol, 0.01% NP-40, 0.1% BSA. Second, use the buffer to prepare the appropriate dilution series of the test and reference compounds. The3,3′,5-Triiodothyronine (T3) was used aspositive control agonist. Third, add 5 μl of 4× compoundserial dilution and 5 μl TRa LBD (4×, 4 nM) (or 5 μl TRβ LBD, 4×, 2 nM) into 384-well plate (784075, greiner). Then, add 10 μl of a solution consist of 400 nM Biotin-SRC2-2 (2×) and anti-GST Eu (1:200, 2×) and 50 nM anti-biotin-d2 (2×) in 1× reaction buffer to initiate the reaction. Centrifuge the plates at 1000 g for 1 min and then incubate 1 hour at room temperature protected from light. Finally, read the plate at wavelengths of 665 nm and 615nmonEnvision2104 plate reader.
(§4) A ratio (Ratio665 nm/615 nm−Ratiobackground) is calculated for each well. Percentage of activity, as well as EC50 was calculated. Effect-dose curve was plotted. Relative selectivity was calculated as the ratio of EC50TRα/EC50TRβ.
Background: TR-FRET usually uses a lanthanide donor and a delayed reading to cut background.

The target of a further experiment is TRα LBD (Homo sapiens, UniProt P10827). The experiment can be described thus: In vitro thyroid hormone receptor binding assay (TR-FRET coactivator assay), TRα LBD. As to conditions: Biotin-SRC2-2, 1 hour at room temperature. The method, then:
as §1, §2, §3, §4

Structures are written as SMILES.

TRα LBD, sequence (P10827 163-410 isoform P10827-2 limits assumed, other chains not shown): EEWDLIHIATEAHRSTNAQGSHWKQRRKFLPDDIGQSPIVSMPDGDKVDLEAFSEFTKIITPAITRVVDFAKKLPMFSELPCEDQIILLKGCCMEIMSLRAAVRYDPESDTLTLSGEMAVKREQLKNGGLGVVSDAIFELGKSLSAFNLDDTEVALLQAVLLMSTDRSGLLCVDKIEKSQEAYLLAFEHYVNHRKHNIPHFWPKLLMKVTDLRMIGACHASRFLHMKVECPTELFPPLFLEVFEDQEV

One may read the EC50 as the concentration that produces a half-maximal response. As to `CC(C)c1cn(Cc2c(Cl)cc(-n3nc(C#N)c(=O)[nH]c3=O)cc2Cl)cnc1=O` [Compound I30, 2-(3,5-dichloro-4-((5-isopropyl-4-oxopyrimidin-1 (4H)-yl)methyl)phenyl)-3,5-dioxo-2,3,4,5-tetrahydro-1,2,4-triazine-6-carbonitrile], the EC50 at TRβ LBD is greater than 10000 nM; at TRα LBD it was greater than 100000 nM.

Take `Cc1c[nH]c2ncc(Oc3c(Cl)cc(-n4nc(C#N)c(=O)[nH]c4=O)cc3Cl)cc12` [Compound I8, 2-(3,5-dichloro-4-((3-methyl-1H-pyrrolo[2,3-b]pyridin-5-yl)oxy)phenyl)-3,5-dioxo-2,3,4,5-tetrahydro-1,2,4-triazine-6-carbonitrile]: the EC50 was 2890 nM on TRβ LBD and greater than 10000 nM on TRα LBD. For the same compound, at TRβ LBD, the “Relative Selectivity TR-α/TR-β” value was greater than 3.46.

With `CC(C)c1cncn(Cc2c(Cl)cc(-n3nc(C#N)c(=O)[nH]c3=O)cc2Cl)c1=O` [Compound I29, 2-(3,5-dichloro-4-((5-isopropyl-6-oxopyrimidin-1 (6H)-yl)methyl)phenyl)-3,5-dioxo-2,3,4,5-tetrahydro-1,2,4-triazine-6-carbonitrile], the concentration giving a half-maximal response (EC50) on TRβ LBD is 6400 nM; on TRα LBD, 5230 nM. In addition, the “Relative Selectivity TR-α/TR-β” value at TRβ LBD came out at 0.82.

Turning to `N#Cc1nn(-c2cc(Cl)c(Oc3ccc4cc[nH]c4c3)c(Cl)c2)c(=O)[nH]c1=O` [Compound I17, 2-(4-((1H-indol-6-yl)oxy)-3,5-dichlorophenyl)-3,5-dioxo-2,3,4,5-tetrahydro-1,2,4-triazine-6-arbonitrile], on TRβ LBD, the EC50 was 135 nM and the “Relative Selectivity TR-α/TR-β” value was determined as 7.50. At TRα LBD, it took 1020 nM to reach a half-maximal effect (EC50).

`N#Cc1nn(-c2cc(Cl)c(Oc3ccc4[nH]ccc4c3)c(Cl)c2)c(=O)[nH]c1=O` [Compound I16, 2-(4-((1H-indol-5-yl)oxy)-3,5-dichlorophenyl)-3,5-dioxo-2,3,4,5-tetrahydro-1,2,4-triazine-6-carbonitrile]: on TRβ LBD, the 50% effective concentration (EC50) turned out to be 125 nM and the “Relative Selectivity TR-α/TR-β” value amounted to 4.25. The compound also registered an EC50 on TRα LBD of 532 nM.

`CC(=O)OCn1cc(Oc2c(Cl)cc(-n3nc(C#N)c(=O)[nH]c3=O)cc2Cl)cc(C(C)C)c1=O` [Compound I24, (5-(2,6-dichloro-4-(6-cyano-3,5-dioxo-4,5-dihydro-1,2,4-triazin-2 (3H)-yl)phenoxy)-3-isopropyl-2-oxopyridin-1 (2H)-yl)methyl acetate]: the EC50 on TRβ LBD is 273 nM; at TRα LBD, greater than 100000 nM. For the same compound, the “Relative Selectivity TR-α/TR-β” value at TRβ LBD is listed as 366.

In the case of `N#Cc1nn(-c2cc(Cl)c(Oc3ccc4[nH]c(=O)[nH]c4c3)c(Cl)c2)c(=O)[nH]c1=O` [Compound I15, 2-(3,5-dichloro-4-((2-oxo-2,3-dihydro-1H-benzo[d]imidazol-5-yl)oxy)phenyl)-3,5-dioxo-2,3,4,5-tetrahydro-1,2,4-triazine-6-carbonitrile], the concentration giving a half-maximal response (EC50) at TRβ LBD was determined as 854 nM; at TRα LBD, 1790 nM. The “Relative Selectivity TR-α/TR-β” value at TRβ LBD was 2.09.

Turning to `Cc1c[nH]c2ccc(Cc3c(Cl)cc(-n4nc(C#N)c(=O)[nH]c4=O)cc3Cl)cc12` [Compound I21, 2-(3,5-dichloro-4-((3-methyl-1H-indol-5-yl)methyl)phenyl)-3,5-dioxo-2,3,4,5-tetrahydro-1,2,4-triazine-6-carbonitrile], at TRβ LBD, the midpoint of the response, the EC50, lay at 86 nM and the “Relative Selectivity TR-α/TR-β” value is 12.11. Further, a half-maximal effect on TRα LBD (EC50) was put at 1040 nM.

For the compound `CC(C)n1cc(Oc2c(Cl)cc(-n3nc(C#N)c(=O)[nH]c3=O)cc2Cl)c(=O)[nH]c1=O` [Compound I28, 2-(3,5-dichloro-4-((1-isopropyl-2,4-dioxo-1,2,3,4-tetrahydropyrimidin-5-yl)oxy)phenyl)-3,5-dioxo-2,3,4,5-tetrahydro-1,2,4-triazine-6-carbonitrile], the 50% effective concentration (EC50) at TRβ LBD is greater than 10000 nM; at TRα LBD, greater than 100000 nM.

Take `N#Cc1nn(-c2cc(Cl)c(Oc3ccc4[nH]cnc4c3)c(Cl)c2)c(=O)[nH]c1=O` [Compound I13, 2-(4-((1H-benzo[d]imidazol-5-yl)oxy)-3,5-dichlorophenyl)-3,5-dioxo-2,3,4,5-tetrahydro-1,2,4-triazine-6-carbonitrile]: at TRβ LBD, the concentration for a half-maximal effect (EC50) was determined as 2610 nM and the “Relative Selectivity TR-α/TR-β” value amounted to 4.67. In addition, at TRα LBD, it took 12200 nM to reach a half-maximal effect (EC50).

As for `N#Cc1nn(-c2cc(Cl)c(Oc3cnc4[nH]ccc4c3)c(Cl)c2)c(=O)[nH]c1=O` [Compound I9, 2-(4-((1H-pyrrolo[2,3-b]pyridin-5-yl)oxy)-3,5-dichlorophenyl)-3,5-dioxo-2,3,4,5-tetrahydr o-1,2,4-triazine-6-carbonitrile], the EC50 at TRβ LBD and at TRα LBD was greater than 10000 nM throughout.

On to `N#Cc1nn(-c2cc(Cl)c(Oc3cnc(O)c(C4CC4)c3)c(Cl)c2)c(=O)[nH]c1=O` [Compound I11, 2-(3,5-dichloro-4-((5-cyclopropyl-6-oxo-1,6-dihydropyridin-3-yl)oxy)phenyl)-3,5-dioxo-2,3,4,5-tetrahydro-1,2,4-triazine-6-carbonitrile], for which the EC50 was 754 nM on TRβ LBD and greater than 10000 nM on TRα LBD.

Take `CC1(C)C(=O)Nc2ccc(Oc3c(Cl)cc(-n4nc(C#N)c(=O)[nH]c4=O)cc3Cl)cc21` [Compound I19, 2-(3,5-dichloro-4-((3,3-dimethyl-2-oxoindolin-5-yl)oxy)phenyl)-3,5-dioxo-2,3,4,5-tetrahydr 0-1,2,4-triazine-6-carbonitrile]: at TRβ LBD, the half-maximal effective concentration (EC50) is 6 nM and the “Relative Selectivity TR-α/TR-β” value is recorded as 3.83. In addition, on TRα LBD, it took 24 nM to reach a half-maximal effect (EC50).

Consider `Cc1cc(OCc2cc(O)no2)cc(C)c1Cc1ccc(O)c(C(C)C)c1` [Compound I2, 5-((4-(4-hydroxy-3-isopropylbenzyl)-3,5-dimethylphenoxy)methyl) isoxazol-3-ol], for which, on TRβ LBD, the EC50 was determined as 16.2 nM and the “Relative Selectivity TR-α/TR-β” value was 0.4560. Further, at TRα LBD, the EC50 came to 7.37 nM.

With `CC(C)n1c(=O)[nH]cc(Oc2c(Cl)cc(-n3nc(C#N)c(=O)[nH]c3=O)cc2Cl)c1=O` [Compound I33, 2-(3,5-dichloro-4-((3-isopropyl-2,4-dioxo-1,2,3,4-tetrahydropyrimidin-5-yl)oxy)phenyl)-3,5-dioxo-2,3,4,5-tetrahydro-1,2,4-triazine-6-carbonitrile], the values for the EC50 at TRβ LBD and at TRα LBD were greater than 10000 nM and greater than 100000 nM, respectively.

For the compound `Cc1cc(OCC(=O)NS(C)(=O)=O)cc(C)c1Cc1ccc(O)c(C(C)C)c1` [Compound I1, 2-(4-(4-hydroxy-3-isopropylbenzyl)-3,5-dimethylphenoxy)-N-(methylsulfonyl)acetamide], at TRβ LBD, the response was half-maximal at 17.3 nM (EC50) and the “Relative Selectivity TR-α/TR-β” value amounted to 0.3915. Also, the EC50 on TRα LBD is 6.77 nM.

The values are drawn from patent US12338206B2, “Compounds and their uses as thyroid hormone receptor agonists” (Nanjing Ruijie Pharma Co., Ltd., priority 2020, dated 2025).
